From the supplement of paper PMC8967900

Assays:
Test in all cases: selective drug sensitivity score (sDSS, relative to normal bone marrow) (sDSS (score)); higher = more potent and effective on the cell line relative to normal bone marrow cells
Conditions in all cases: 72 h
697 = system: 697
MN-60 = system: MN-60
ALL-PO = system: ALL-PO
TMD5 = system: TMD5
COG-LL-332h = system: COG-LL-332h
MHH-CALL-4 = system: MHH-CALL-4
NALM-6 = system: NALM-6
MOLT-14 = system: MOLT-14
CCRF-CEM = system: CCRF-CEM
380 = system: 380
MHH-CALL-2 = system: MHH-CALL-2
P30-OHKUBO = system: P30-OHKUBO
SEM cells = system: SEM cells
LC4-1 = system: LC4-1
JURKAT = system: JURKAT
COG-LL-402h = system: COG-LL-402h
RCH-ACV = system: RCH-ACV
HPB-ALL = system: HPB-ALL
ALL-SIL = system: ALL-SIL
COG-LL-319h = system: COG-LL-319h
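Note: ALL cell lines in 384-well plates, five doses spanning 10,000-fold, each plate scaled between vehicle and 100 µmol/L benzalkonium chloride controls, sDSS an adapted area-under-curve metric.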

Row | SMILES | selective drug sensitivity score 697 | selective drug sensitivity score (MN-60) | selective drug sensitivity score (ALL-PO) | selective drug sensitivity score (TMD5) | selective drug sensitivity score (COG-LL-332h) | selective drug sensitivity score (MHH-CALL-4) | selective drug sensitivity score (NALM-6) | selective drug sensitivity score (MOLT-14) | selective drug sensitivity score (CCRF-CEM) | selective drug sensitivity score 380 | selective drug sensitivity score (MHH-CALL-2) | selective drug sensitivity score (P30-OHKUBO) | selective drug sensitivity score (SEM cells) | selective drug sensitivity score (LC4-1) | selective drug sensitivity score (JURKAT) | selective drug sensitivity score (COG-LL-402h) | selective drug sensitivity score (RCH-ACV) | selective drug sensitivity score (HPB-ALL) | selective drug sensitivity score (ALL-SIL) | selective drug sensitivity score (COG-LL-319h)
1 | COC(=O)N[C@@H](C)CNc1nccc(-c2cn(C(C)C)nc2-c2cc(Cl)cc(NS(C)(=O)=O)c2F)n1 [Encorafenib] (top concentration 1000 nM) | 8 | 0 | 0 | 0 | 0 | 0 | 3.5 | 0 | 0.2 | 0 | 1.7 | 1.3 | 0.1 | 2.9 | 1.7 | 0 | 1 | 1.1 | 0 | 0
2 | Nc1cc(C(F)(F)F)c(-c2cc(N3CCOCC3)nc(N3CCOCC3)n2)cn1 [Buparlisib] (top concentration 10000 nM) | 7.38 | 2.68 | 9.58 | -1.82 | 3.58 | 2.78 | 4.78 | 5.48 | 5.28 | 7.18 | 5.28 | 7.28 | 7.08 | 6.08 | 8.18 | 5.58 | 13.3 | 6.38 | 8.28 | 4.58
3 | C[C@H]1O[C@@H](O[C@H]2[C@@H](O)C[C@H](O[C@H]3[C@@H](O)C[C@H](O[C@H]4CC[C@@]5(C)[C@H](CC[C@@H]6[C@@H]5C[C@@H](O)[C@]5(C)[C@@H](C7=CC(=O)OC7)CC[C@]65O)C4)O[C@@H]3C)O[C@@H]2C)C[C@H](O)[C@@H]1O [Digoxin] (top concentration 1000 nM) | 8.6 | 2.7 | 4 | 6.9 | 9.8 | 5.6 | 10.5 | 8 | 8.9 | 22.5 | 11.9 | 9.1 | 10 | 7.8 | 10 | 6.4 | 8.1 | 5.5 | 5.6 | 10.3
4 | COc1ccc(COc2cc3oc(=O)c4cc(C(C)O)ccc4c3cc2OC)cc1 (stereo not given) [Palomid-529] (top concentration 10000 nM) | 0.06 | -0.24 | 2.86 | -0.24 | 0.46 | -0.24 | -0.24 | 2.76 | 0.86 | 5.86 | 1.06 | -0.24 | 1.76 | 12.6 | 5.16 | 0.26 | -0.14 | 0.76 | -0.24 | 17.2
5 | O=C(Nc1nc2cccc(-c3ccc(CN4CCS(=O)(=O)CC4)cc3)n2n1)C1CC1 [Filgotinib] (top concentration 10000 nM) | 0.06 | -2.64 | 6.16 | 0.16 | -1.84 | 2.86 | -2.44 | -0.44 | -1.34 | 11.7 | 5.36 | 2.56 | 1.96 | -1.94 | -1.34 | -1.54 | 1.56 | -1.34 | -0.24 | -3.74
6 | CNC(=O)c1cccc(-c2ccc3c(N4CCOC[C@@H]4C)nc(N4CCOC[C@@H]4C)nc3n2)c1 [Vistusertib] (top concentration 10000 nM) | 15.1 | 2.72 | 10 | 3.02 | 4.62 | 5.82 | 3.92 | 2.12 | 8.22 | 17.1 | 9.52 | 11.7 | 4.82 | 5.12 | 2.22 | 9.12 | 24.5 | 1.12 | 8.52 | 10.6
7 | Cc1c(-c2c(-c3ccc(F)o3)sc3ncnc(O[C@H](Cc4ccccc4OCc4ccnn4CC(F)(F)F)C(=O)O)c23)ccc(OCCN2CCN(C)CC2)c1Cl (top concentration 1000 nM) | -0.84 | -7.74 | -7.74 | -7.74 | -5.84 | -4.64 | -3.44 | 3.06 | -0.24 | 0.86 | -6.04 | 1.26 | -6.44 | -0.54 | -6.44 | 6.06 | -6.54 | -2.44 | -1.04 | 15.8
8 | CN(C)C1CCN(C(=O)c2ccc(NC(=O)Nc3ccc(-c4nc(N5CCOCC5)nc(N5CCOCC5)n4)cc3)cc2)CC1 [Gedatolisib] (top concentration 1000 nM) | 11.3 | 6.26 | 1.06 | 0.66 | 4.96 | 3.66 | 5.16 | -3.24 | 7.26 | 14.8 | 3.26 | 15.2 | 1.16 | 3.06 | 2.66 | 8.56 | 17.5 | -0.04 | 2.66 | -0.04
9 | CO[C@@H]1[C@H](N(C)C(=O)c2ccccc2)C[C@H]2O[C@]1(C)n1c3ccccc3c3c4c(c5c6ccccc6n2c5c31)C(=O)NC4 [Midostaurin] (top concentration 10000 nM) | 14 | -1.24 | 14.8 | 0.66 | 6.26 | 3.66 | 7.56 | 11.6 | 7.06 | 10.1 | 3.86 | 14.4 | 19.3 | 10.6 | -1.34 | 6.86 | 16.2 | 4.36 | 10.8 | 11.7
10 | CN1CCC(CNc2ccc3ncc(-c4cccc(OC(F)(F)F)c4)n3n2)CC1 [SGI-1776] (top concentration 10000 nM) | -0.68 | -3.78 | 7.02 | -0.98 | 0.22 | 0.32 | -3.08 | 0.32 | 0.52 | -2.38 | 1.22 | 0.12 | 6.92 | -1.08 | -3.28 | -2.48 | 0.62 | -4.08 | -1.48 | -1.28
11 | CC(C)Oc1ccc(-c2nn([C@@H](C)c3oc4ccc(F)cc4c(=O)c3-c3cccc(F)c3)c3ncnc(N)c23)cc1F [TGR-1202] (top concentration 2500 nM) | 0.44 | -2.56 | 3.84 | -2.56 | -1.56 | -0.06 | -1.16 | -2.56 | -1.16 | -2.56 | -0.06 | 5.14 | -2.56 | -1.76 | -2.56 | -1.96 | 9.14 | -2.56 | -0.36 | 1.64
12 | COc1cccc2c1C(=O)c1c(O)c3c(c(O)c1C2=O)C[C@@](O)(/C(CO)=N/NC(=O)CCCCCN1C(=O)C=CC1=O)C[C@@H]3O[C@H]1C[C@H](N)[C@H](O)[C@H](C)O1 [Aldoxorubicin] (top concentration 1000 nM) | 10.2 | 0.84 | -2.06 | 0.34 | 12.1 | 8.14 | 4.34 | 12.9 | 7.24 | 13.2 | 9.84 | 7.34 | 3.64 | 6.34 | 1.64 | 14.3 | 11.7 | 1.04 | 0.74 | 14
13 | C[C@H](Nc1ncnc2nc[nH]c12)c1cc2cccc(Cl)c2c(=O)n1-c1ccccc1 [Duvelisib] (top concentration 500 nM) | 2.16 | -0.94 | 0.86 | -0.94 | 2.46 | -0.34 | 4.36 | -0.94 | 4.36 | 1.46 | -0.94 | 5.76 | -0.54 | -0.94 | -0.94 | 4.96 | 21 | -0.94 | -0.94 | 3.56
14 | C#Cc1cccc(Nc2ncnc3cc(OCCOC)c(OCCOC)cc23)c1 [Erlotinib] (top concentration 10000 nM) | 5.86 | 0.96 | 5.46 | -0.34 | 1.96 | -1.24 | -1.24 | 4.06 | 2.06 | 2.36 | 1.76 | 2.96 | 1.86 | 8.66 | 2.26 | 4.06 | 4.26 | 0.66 | 5.36 | 16.2
15 | CCS(=O)(=O)N1CCN(c2ccc(Nc3ncc(C(N)=O)c(NC4CC4)n3)cc2)CC1 [Cerdulatinib] (top concentration 10000 nM) | -3.66 | -11.9 | 6.04 | -4.46 | -4.26 | -5.46 | 1.44 | -3.16 | -6.26 | -11.9 | -8.26 | 3.44 | 2.54 | -9.46 | -8.66 | -2.56 | 13.3 | -11.9 | -0.76 | 2.14
16 | Nc1cc(F)ccc1NC(=O)c1ccc(CNC(=O)/C=C/c2cccnc2)cc1 [Tucidinostat] (top concentration 10000 nM) | 6.34 | 1.54 | 2.94 | 4.14 | -2.76 | 9.94 | -0.36 | 3.94 | 2.44 | 12.5 | 9.14 | 4.04 | 10.3 | 3.94 | 1.34 | 5.34 | 11.1 | 3.44 | 10.4 | 12
17 | COc1cc(Nc2ncc3c(n2)-c2ccc(Cl)cc2C(c2c(F)cccc2OC)=NC3)ccc1C(=O)O [Alisertib] (top concentration 10000 nM) | 25 | -3.42 | 15.6 | 11 | 24.8 | -5.62 | 20.1 | 21 | 21.5 | 26.4 | 14.9 | 25.4 | 26.8 | 25.5 | 11.3 | 16.1 | 24.3 | 14.3 | 17.2 | 23.3
